# Reference: PMC9879991, “Biomolecular condensates formed by designer minimalistic peptides” (Nature Communications, 2023)
# Where two headings read alike, the source gives them in different places. No end group written: not given here.
# Assays:
# [1] = solution NMR
# Description: pKa values were determined by following the chemical shifts of Trp1-Hα and Trp1-Hβ at pH values of 6.0, 7.0, 7.5, 8.0 and
# 9.0. The 10 obtained chemical shifts were fitted to the Henderson-Hasselbach equation with the assumption that peak
# position is a weighted average of the two end-point chemical shifts; optimization parameters were the two end-point shifts
# (representing fully ionized and fully deionized forms of the N-terminal amino group of the peptide. Errors were determined
# by Monte Carlo simulations with a measurement error of 0.01 ppm for all chemical shifts.
# [2] = solution NMR, S.D. in next row
# Text: Source data are provided as a Source Data file.
# (1 picture or pasted object on this page, not shown here)
# [3] = Turbidity assay of WGR-1 (10 mM) in citrate, Tris and ammonium bicarbonate buffer; format: physicochemical; details: 10 mM peptide, mean of n=3
# Description: Supplementary Figure 2. Turbidity assay of WGR-1 (10 mM) in citrate buffer (pH 6-7), Tris buffer (pH 6-10) and ammonium bicarbonate buffer (ABC, pH 9-10). Turbidity was monitored at λ=500 nm.
# Source data are provided as a Source Data file. […]
# iii) Performed solution NMR analysis to determine the pKa of the terminal amine for each […]
# The results of each analysis are detailed below: i) To analyze the effect of the ions in each of the buffers on peptide LLPS, we performed turbidity assay of 10 mM WGR-1 using citrate buffer at pH 6-7, tris buffer at pH 6-10 and ammonium carbonate buffer at pH 9-10, with 200 mM NaCl. For citrate buffer, we measured sample turbidity at pH 6, the optimal value for this buffer, and in addition at pH 7, to compare the effect of citrate and tris on LLPS. Similarly, we analyzed the turbidity in ammonium bicarbonate buffer at pH 9 in additional to pH 10, to compare the effect of tris and ammonium bicarbonate on LLPS.
# Higher turbidity is observed at pH 7 with citrate compared to tris and with ammonium bicarbonate at pH 9-10 compared to tris. […]
# bicarbonate facilitate LLPS, presumably by reducing the electrostatic repulsion between […]
# citrate and -1/-2 for ammonium bicarbonate). […]
# In light of these findings and the obvious ion effect, we decided to present the new phase diagrams in tris in main text Figure 2b and the phase diagrams with the different buffers in Supplementary Fig. 1. The text was revised accordingly (see revised manuscript, revised text is highlighted in red). In addition, the turbidity assay of the different buffers was added to […]
# Supplementary Fig. 2. […]
# [4] = format: physicochemical; details: for Apparent diffusion coefficient D, condensed phase (FRAP) / t1/2 of the FRAP recovery: 20 mM peptide, 0.5% FITC-labeled, tris pH 8, 0.2 M NaCl
# Description: Next, we studied whether the peptide sequence affects the material properties of the resulting liquid droplets. For this, we performed FRAP analysis using laser scanning confocal microscopy of 0.5% FITC-labeled peptides. […] The apparent diffusion coefficient for each peptide was calculated as1 Dapp=r^2/t where t is the recovery time. The calculated apparent diffusion coefficients of the peptides were in the 1.7–5.5*10^−14 m^2 s^−1 range (Supplementary Table 1).
# Fig. 3 Strength of intermolecular interactions affects peptide droplet dynamics. a–c FRAP analysis of WGR-1, WGR-3, WGR-4, and WGR-5, performed using laser scanning confocal microscopy at 20 mM in Tris buffer at pH 8 with 0.2 M NaCl using 0.5% FITC-labeled peptides. a Representative confocal microscopy images of FRAP for individual droplets. Scale bars = 5 μm. FRAP recovery plots (b), apparent diffusion coefficient (c), and t1/2 of the recovery (d). Data are presented as mean values +/− SD, n = 5 (WGR-1), 4 (WGR-3, WGR-4), and 5 (WGR-5). Source data are provided as a Source Data file.
# FRAP experiments were performed by a Zeiss Zen 900 confocal microscope with ×20/0.8 NA Plan- Apochromat air objective. For each of the peptides, out of a total peptide concentration of 20 mM we used 0.5% FITC-labeled peptide, in tris buffer pH 8 with 0.2 M NaCl. A circular area with radius of 2.5 μm was bleached with a 488 nm laser 100% intensity at 10 iterations; subsequent recovery of the bleached area was recorded with a 488 nm laser. Monitoring of fluorescence recovery in the condensates was analyzed using Zen Blue 3.2 software (Zeiss). Photobleaching correction and recovery time were calculated using OriginLab 9.95. The final FRAP recovery curve is the average of recovery curves collected from n = 4–6 separate droplets.
# [5] = FRAP of WGR-1 droplets, replicate 1
sequence,measurement,setting,value
WGRGRGRGWPGVGY [WGR-1],pKa of the N-terminal amine group,"[1]; Trp1-Hα and Trp1-Hβ shifts at pH 6.0, 7.0, 7.5, 8.0, 9.0, Henderson-Hasselbach fit, error by Monte Carlo",7.50 ± 0.01
same,pKa of the Tyr14 phenolic ring,[1]; pH-induced chemical shift changes,~ 10
same,"D dilute phase (NMR), apparent diffusion coefficient",[2],1.91E-10 m^2/sec
same,Turbidity as asorbance at 500 nm,"[3]; AC (ammonium bicarbonate) buffer, pH 9, 200 mM NaCl",2.028
same,Turbidity as asorbance at 500 nm,"[3]; AC (ammonium bicarbonate) buffer, pH 10, 200 mM NaCl",2.068
same,Turbidity as asorbance at 500 nm,"[3]; Tris buffer, pH 6, 200 mM NaCl",0.007333
same,Turbidity as asorbance at 500 nm,"[3]; Tris buffer, pH 7, 200 mM NaCl",0.01967
same,Turbidity as asorbance at 500 nm,"[3]; Tris buffer, pH 8, 200 mM NaCl",0.2073
same,Turbidity as asorbance at 500 nm,"[3]; Tris buffer, pH 9, 200 mM NaCl",1.416
same,Turbidity as asorbance at 500 nm,"[3]; Tris buffer, pH 10, 200 mM NaCl",1.71
same,Turbidity as asorbance at 500 nm,"[3]; citrate buffer, pH 6, 200 mM NaCl",0.02367
same,Turbidity as asorbance at 500 nm,"[3]; citrate buffer, pH 7, 200 mM NaCl",0.974
same,"Apparent diffusion coefficient D, condensed phase (FRAP)","[4]; Dapp=r^2/t, mean of n=4-5 droplets",4.58E-14 m^2 s^-1
same,"Apparent diffusion coefficient D, condensed phase (FRAP)","[4]; bleached radius 2.5 μm, droplet 1",4.047e-14 m^2 s^-1
same,t1/2 of the FRAP recovery,[4]; droplet 1,37.1535
same,t1/2 of the FRAP recovery,[4]; droplet 2,29.5706
same,t1/2 of the FRAP recovery,[4]; droplet 3,25.8937
same,t1/2 of the FRAP recovery,[4]; droplet 4,27.3852
same,t1/2 of the FRAP recovery,[4]; droplet 5,32.7563
same,x=t at y=0.5a (t1/2 of FRAP recovery),"[4]; FRAP of WGR-1 droplets, from fit, mean of 5 droplets (stdev 4.50361)",30.5519 s
same,x=t at y=0.95a (time to 95% of plateau recovery),"[4]; FRAP of WGR-1 droplets, from fit, mean of 5 droplets (stdev 17.8362)",138.34 s
same,x=t at y=0.5a (t1/2 of FRAP recovery),"[4]; FRAP of WGR-1 droplets, from fit, replicate 1",37.1535 s
same,x=t at y=0.5a (t1/2 of FRAP recovery),"[4]; FRAP of WGR-1 droplets, from fit, replicate 2",29.5706 s
same,x=t at y=0.5a (t1/2 of FRAP recovery),"[4]; FRAP of WGR-1 droplets, from fit, replicate 3",25.8937 s
same,x=t at y=0.5a (t1/2 of FRAP recovery),"[4]; FRAP of WGR-1 droplets, from fit, replicate 4",27.3852 s
same,x=t at y=0.5a (t1/2 of FRAP recovery),"[4]; FRAP of WGR-1 droplets, from fit, replicate 5",32.7563 s
same,%recovery (mean of fitted plateau a of the FRAP recovery curves),"[4]; FRAP of WGR-1 droplets, normalized intensity fitted with parameters a, b, c, mean of 5 droplets (stdev 7.03086)",78.6308%
same,"D (apparent diffusion coefficient from FRAP), average","[4]; FRAP of WGR-1 droplets, average of 5 droplets (stdev 6.05E-15)",4.58E-14 m^2 s^-1
same,D (apparent diffusion coefficient from FRAP),[4]; [5],4.05E-14 m^2 s^-1
same,a (fitted plateau of normalized FRAP recovery),[4]; [5],68.4582
same,"D condensed phase (FRAP), apparent diffusion coefficient","[4]; condensed phase, FRAP, mean, S.D. in next row",4.52E-14 m^2/sec
